Data published in patent publication US20220296595A1, “CDK INHIBITORS” (QILU REGOR THERAPEUTICS INC., priority 2019, published 2022).
Where two headings read alike, the source gives them in different places.

What was measured:
CDK4/CyclinD1 = biological target: T1, CDK4/CyclinD1 (Homo sapiens, UniProt P11802); experiment: Assay for inhibition of CDK4/CyclinD1 (Caliper microfluidic kinase assay); type: biochemical
T1 construct: purchased Thermofisher PR8064A
Method: The CDK4 enzyme assay for IC50 determination was performed as follows. Microfluidic kinase detection technology (Caliper) was used to monitor the phosphorylation of peptide substrate by CDK4/CyclinD1. The total reaction volume was 15 μL containing buffer A (100 mM HEPES (pH 7.5), 0.1% BSA, 0.01% Triton X-100, 1 mM DTT, 10 mM MgCl2, 10 μM Sodium Orthovanadate, 10 μM Beta-Glycerophosphate), 200 μM ATP, 1 nM CDK4/CyclinD1 (Thermofisher, PR8064A), 1 μM FL-34 (5-FAM-[…]), and the test compound at appropriate dilutions in DMSO. All components were added to the 384-well plate (Corning, 4514), and incubated at Room Temperature for 3 hours. The reaction was terminated by addition of 15 μL Stop Buffer (180 mM HEPES (pH 7.5), 20 mM EDTA, Coating-3 reagent (PerkinElmer, 760050)). The plate was then loaded on Caliper EZ Reader (EZ Reader II, PerkinElmer, HD-4HYSG2772), and the reaction mixtures including substrate and product were sipped into the microfluidic chip for separation and detection. The IC50 values of the test compound were determined by fitting the inhibition curves by 4 parameter sigmoidal dose-response model using the Xlfit5/GraphPad Prism 5 software.

CDK2/CyclinE1 = biological target: T2, CDK2/CyclinE1 (Homo sapiens, UniProt P24941); experiment: Assay for inhibition of CDK2/CyclinE1 (Caliper microfluidic kinase assay); type: biochemical; settings: read-out: CDK2 IC50
T2 construct: purchased SignalChem C29-18G
Method: The CDK2 enzyme assay for IC50 determination was performed as follows. Microfluidic kinase detection technology (Caliper) was used to monitor the phosphorylation of peptide substrate by CDK2/CyclinE1. The total reaction volume was 15 μL containing buffer A (100 mM HEPES (pH 7.5), 0.1% BSA, 0.01% Triton X-100, 1 mM DTT, 10 mM MgCl2, 10 μM Sodium Orthovanadate, 10 μM Beta-Glycerophosphate), 100 μM ATP, 5 nM CDK2/CyclinE1 (SignalChem, C29-18G), 5 μM FL-18 (5-FAM-QSPKKG-NH2), and the test compound at appropriate dilutions in DMSO. All components were added to the 384-well plate (Corning, 4514), and incubate at Room Temperature for 3 hours. The reaction was terminated by addition of 15 μL Stop Buffer (180 mM HEPES (pH 7.5), 20 mM EDTA, Coating-3 reagent (PerkinElmer, 760050)). The plate was loaded on Caliper EZ Reader (EZ Reader II, PerkinElmer, HD-4HYSG2772), and the reaction mixtures including substrate and product were sipped into the microfluidic chip for separation and detection. The IC50 values of the test compound were determined by fitting the inhibition curves by 4 parameter sigmoidal dose-response model using the Xlfit5/GraphPad Prism 5 software.

T1 sequence (P11802 whole entry): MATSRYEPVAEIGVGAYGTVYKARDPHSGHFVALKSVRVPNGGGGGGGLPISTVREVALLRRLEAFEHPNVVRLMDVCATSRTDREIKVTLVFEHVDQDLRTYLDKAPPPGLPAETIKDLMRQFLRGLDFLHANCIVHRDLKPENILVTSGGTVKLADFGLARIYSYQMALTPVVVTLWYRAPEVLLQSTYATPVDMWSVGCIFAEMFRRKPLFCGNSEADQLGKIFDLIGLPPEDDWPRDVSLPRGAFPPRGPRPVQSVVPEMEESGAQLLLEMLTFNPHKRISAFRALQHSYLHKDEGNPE
T1 sequence (P24385 whole entry partner): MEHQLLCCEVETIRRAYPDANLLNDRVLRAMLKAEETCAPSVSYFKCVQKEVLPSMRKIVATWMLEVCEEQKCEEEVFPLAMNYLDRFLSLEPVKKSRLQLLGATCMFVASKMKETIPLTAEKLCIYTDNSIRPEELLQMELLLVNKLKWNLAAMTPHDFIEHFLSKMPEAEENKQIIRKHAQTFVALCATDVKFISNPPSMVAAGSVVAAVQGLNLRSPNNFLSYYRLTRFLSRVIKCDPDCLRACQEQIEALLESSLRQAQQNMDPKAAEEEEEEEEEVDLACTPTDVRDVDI

| Structure (SMILES) | IC50 (CDK4/CyclinD1; CDK4/CyclinD1, 200 μM ATP) [nM] | IC50 (CDK2/CyclinE1; CDK2/CyclinE1, 100 μM ATP) [nM] | IC50 (CDK4/CyclinD1; CDK4/CyclinD1) [nM] | IC50 (CDK2/CyclinE1; CDK2/CyclinE1) [nM] |
| --- | --- | --- | --- | --- |
| CC(C)c1cnc2cnc(-c3ccnc(Nc4ccc(N5CCNCC5=O)cn4)n3)cn12 [Synthetic Example 143] | 10 to 100 | > 1000 |  |  |
| COc1nc(-c2nc(Nc3ccc(N4CCOCC4=O)cn3)ncc2F)cc2c1nc(C)n2C1CCCC1O (centres unmarked) [compound 71] |  |  | 10 to 100 | > 1000 |
| COc1nc(-c2nc(Nc3ccc(N4CCOCC4=O)cn3)ncc2F)cc2c1nc(C)n2C(C)CO (centres unmarked) [compound 72] |  |  | 10 to 100 | > 1000 |
| COc1nc(-c2nc(Nc3ccc(N4CCOC4=O)cn3)ncc2F)cc2c1nc(C)n2C(C)C [compound 85] |  |  | 10 to 100 | > 1000 |
| CCN1CCN(c2ccc(Nc3ncc(F)c(-c4cc5c(nc(C)n5C(C)C)c(OC)n4)n3)nc2)C1=O [compound 89] |  |  | 10 to 100 | > 1000 |
| COc1nc(-c2nc(Nc3ccc(N4CCC5(CCNC5=O)CC4)cn3)ncc2F)cc2c1nc(C)n2C(C)C [compound 90] |  |  | 10 to 100 | > 1000 |
| COc1nc(-c2nc(Nc3ccc(N4CCOCC4C)cn3)ncc2F)cc2c1nc(C)n2C(C)C (centres unmarked) [compound 97] |  |  | 10 to 100 | > 1000 |
| CCN1CCN(c2ccc(Nc3ncc(F)c(-c4cc5c(nc(C)n5C(C)C)c(OC)n4)n3)nc2)CC1=O [compound 105] |  |  | 10 to 100 | > 1000 |
| COc1nc(-c2ccnc(Nc3ccn(CC4CCNCC4)n3)n2)cc2c1ncn2C(C)C [compound 108] | 10 to 100 | > 1000 |  |  |
| COc1nc(-c2nc(Nc3ccc(N4CCNC5(CC5)C4)cn3)ncc2F)cc2c1nc(C)n2C(C)C [compound 110] | 10 to 100 | > 1000 |  |  |
| COc1nc(-c2nc(Nc3ccc(C(=O)N4CCC(N)CC4)c(C)n3)ncc2F)cc2c1nc(C)n2C(C)C [compound 120] | 10 to 100 | > 1000 |  |  |
| COc1nc(-c2ccnc(Nc3ccc4c(n3)CCN(C(=O)CO)C4)n2)cc2c1ncn2C(C)C [compound 141] | 10 to 100 | > 1000 |  |  |
| COc1nc(-c2ccnc(Nc3ccc4c(n3)CCN(C(=O)CC#N)C4)n2)cc2c1ncn2C(C)C [compound 142] | 10 to 100 | > 1000 |  |  |
| CC(C)c1cnn2ccc(-c3ccnc(Nc4ccc(C(=O)N5CCC(N(C)C)CC5)cc4)n3)cc12 [compound 148] | < 10 | < 10 |  |  |
| CC(C)c1cnn2ccc(-c3ccnc(Nc4ccc(C(=O)N5CCC(O)CC5)cc4)n3)cc12 [compound 149] | 10 to 100 | < 10 |  |  |
| CC(C)c1cnn2ccc(-c3ccnc(Nc4ccc(C(=O)N5CCC(O)C5)cc4)n3)cc12 (centres unmarked) [compound 150] | < 10 | < 10 |  |  |
| CC(C)c1cnn2ccc(-c3ccnc(Nc4ccc(C(=O)N5CCC(N(C)C)C5)cc4)n3)cc12 (centres unmarked) [compound 151] | < 10 | < 10 |  |  |
| CC(C)c1cnn2ccc(-c3ccnc(Nc4ccc(C(=O)N5CCC(N(C)C)C5)cc4F)n3)cc12 (centres unmarked) [compound 152] | 10 to 100 | 10 to 100 |  |  |
| CC(C)c1cnn2ccc(-c3ccnc(Nc4ccc(C(=O)N5CC(O)C5)cc4)n3)cc12 [compound 153] | < 10 | < 10 |  |  |
| CC(C)c1cnn2ccc(-c3ccnc(Nc4ccc(C(=O)N5CC(N(C)C)C5)cc4)n3)cc12 [compound 154] | < 10 | < 10 |  |  |
| CC(C)c1cnn2ccc(-c3ccnc(Nc4ccc(N5CCC(N(C)C)CC5=O)cc4F)n3)cc12 (centres unmarked) [compound 180] | < 10 | < 10 |  |  |
| CN(C)C1CCN(c2ccc(Nc3nccc(-c4ccn5ncc(C(C)(C)C)c5c4)n3)c(F)c2)C(=O)C1 (centres unmarked) [compound 181] | < 10 | < 10 |  |  |
| Cc1nn2ccc(-c3ccnc(Nc4ccc(S(N)(=O)=O)nc4)n3)cc2c1C(C)C [compound 182] | 10 to 100 | < 10 |  |  |

| Structure (SMILES) | IC50 (CDK4/CyclinD1; CDK4/CyclinD1, 200 μM ATP) [nM] | IC50 (CDK2/CyclinE1; CDK2/CyclinE1, 100 μM ATP) [nM] | IC50 (CDK4/CyclinD1; CDK4/CyclinD1) [nM] | IC50 (CDK2/CyclinE1; CDK2/CyclinE1) [nM] |
| --- | --- | --- | --- | --- |
| Cc1cc(N2CCNCC2=O)ccc1Nc1nccc(-c2ccn3ncc(C(C)C)c3c2)n1 [compound 186] | 10 to 100 | < 10 |  |  |
| CC(C)c1cnn2ccc(-c3ccnc(Nc4cccc(N5CCNCC5=O)c4)n3)cc12 [compound 187] | 10 to 100 | 10 to 100 |  |  |
| CC(C)c1cnn2ccc(-c3ccnc(Nc4ccc(N5CCNCC5=O)cc4O)n3)cc12 [compound 188] | 10 to 100 | 10 to 100 |  |  |
| CNC1CN(C(=O)c2ccc(Nc3nccc(-c4ccn5ncc(C(C)C)c5c4)n3)cc2)C1 [compound 190] | < 10 | 10 to 100 |  |  |
| CC(C)c1cnn2ccc(-c3ccnc(Nc4ccc(N5CCC(C)(N)CC5=O)cc4Cl)n3)cc12 (centres unmarked) [compound 212] | < 10 | < 10 |  |  |
| COc1cc(N2CCCC(N)C2=O)ccc1Nc1nccc(-c2ccn3ncc(C(C)C)c3c2)n1 (centres unmarked) [compound 222] | 10 to 100 | 10 to 100 |  |  |
| CC(C)c1cnn2ccc(-c3ccnc(Nc4ccc(N5CCCC(N)C5=O)cc4F)n3)cc12 (centres unmarked) [compound 223] | < 10 | 10 to 100 |  |  |
| CC(C)c1cnn2ccc(-c3ccnc(Nc4ccc(N5CCNCC5=O)c(F)c4)n3)cc12 [compound 228] | < 10 | < 10 |  |  |
| CC(C)c1cnn2ccc(-c3ccnc(Nc4ccc(N5CCNCC5=O)c(F)c4F)n3)cc12 [compound 229] | < 10 | < 10 |  |  |
| CCNC1CCN(c2ccc(Nc3nccc(-c4ccn5ncc(C(C)C)c5c4)n3)c(F)c2)C(=O)C1 (centres unmarked) [compound 230] | < 10 | < 10 |  |  |
| CNC1CCCN(c2ccc(Nc3nccc(-c4ccn5ncc(C(C)C)c5c4)n3)c(F)c2)C1=O (centres unmarked) [compound 231] | < 10 | 10 to 100 |  |  |
| CC(C)(C)c1cnn2ccc(-c3ccnc(Nc4ccc(N5CCCC(N)C5=O)cc4F)n3)cc12 (centres unmarked) [compound 232] | < 10 | < 10 |  |  |
| CC(C)c1cnn2ccc(-c3ccnc(Nc4ccc(N5CCC(NCCF)CC5=O)cc4)n3)cc12 (centres unmarked) [compound 233] | < 10 | < 10 |  |  |
| CCN1CCN(Cc2ccc(Nc3ncc(F)c(N4CCc5ncn(C(C)C)c5C4)n3)nc2)CC1 [compound 251] | 10 to 100 | > 1000 |  |  |
| CC(C)n1cnc2c1CN(c1nc(Nc3ccc(S(N)(=O)=O)nc3)ncc1F)CC2 [compound 254] | 10 to 100 | < 10 |  |  |
| CC(C)n1cnc2c1CN(c1nc(Nc3ccc4c(c3)CS(=O)(=O)C4)ncc1F)CC2 [compound 255] | < 10 | < 10 |  |  |
| CC(C)n1cnc2c1CN(c1nc(Nc3ccc(N4CCNCC4=O)cc3F)ncc1F)CC2 [compound 256] | < 10 | < 10 |  |  |
| CC1(C)COc2c(F)cc(-c3ccnc(Nc4ccc(N5CCCC(N)C5=O)nc4)n3)cc21 (centres unmarked) [compound 264] | < 10 | 10 to 100 |  |  |
| CCN1CCN(c2ccc(Nc3nccc(-c4cc5c(ncn5C(C)C)c(F)n4)n3)nc2)C(=O)C1 [compound 274] | < 10 | 100 to 1000 |  |  |
| CC(C)n1cnc2c(F)nc(-c3ccnc(Nc4ccc(N5CCC(C)(N)CC5=O)cc4Cl)n3)cc21 (centres unmarked) [compound 291] | < 10 | < 10 |  |  |
| COc1cc(N2CCC(N(C)C)CC2=O)ccc1Nc1nccc(-c2cc3c(ncn3C(C)C)c(F)n2)n1 (centres unmarked) [compound 296] | < 10 | < 10 |  |  |
| CC(C)n1cnc2c(F)nc(-c3ccnc(Nc4ccc(N5CCC(N(C)C)CC5=O)cc4F)n3)cc21 (centres unmarked) [compound 305] | < 10 | < 10 |  |  |
| CC(C)n1cnc2c(F)nc(-c3ccnc(NC4CCN(S(C)(=O)=O)CC4)n3)cc21 [compound 310] | 10 to 100 | 10 to 100 |  |  |
